From PubChem BioAssay (NCI) come the findings set out here.

The structures appear in SMILES notation.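 Five concentrations, 48 hours, 96-well plates. At the TGI there is no net growth.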 Some results are limits rather than exact numbers.

Test systems include LOX IMVI melanoma; RPMI-8226 leukemia; OVCAR-4 ovarian; HL-60(TB) leukemia; EKVX NSCLC; UACC-62 melanoma; NCI-H23 lung; CCRF-CEM leukemia; PC-3 prostate; HT29 colon.
Common to all, as to experiment: NCI anticancer screen, dose series, 48 h

As for `CCOC(=O)/C=C/C(Br)=C(Br)/C=C/C(=O)OCC`, the TGI came out at 7.44 µM in the assay with LOX IMVI melanoma; 15.6 µM with RPMI-8226 leukemia; 34.8 µM with OVCAR-4 ovarian; 26.1 µM in the assay on HL-60(TB) leukemia; 36.2 µM in the assay on EKVX NSCLC; 30.9 µM in the assay on UACC-62 melanoma. The TGI in the assay on NCI-H23 lung was determined as 30 µM; with CCRF-CEM leukemia, 2.84 µM; in the assay with PC-3 prostate it was 28 µM; in the assay with HT29 colon it was 29.1 µM.
In the case of `COc1ccc2c(-c3csc(-c4c[nH]c5ccccc45)n3)c[nH]c2c1`, the TGI in the assay with LOX IMVI melanoma was > 31.9 µM; with RPMI-8226 leukemia, > 24.5 µM; in the assay with OVCAR-4 ovarian it was 69.8 µM; with HL-60(TB) leukemia it was > 100 µM; in the assay on EKVX NSCLC, 13.3 µM; in the assay with UACC-62 melanoma, > 94.8 µM. Further, the TGI was > 66.5 µM in the assay with NCI-H23 lung, > 63.3 µM in the assay on CCRF-CEM leukemia, 39.9 µM with PC-3 prostate and 7.32 µM in the assay with HT29 colon.
`CC(=O)OCC12C(OC(C)=O)C[C@@H](C)C3(CC(c4ccoc4)OC3=O)C1CCC(OC(C)=O)C21CO1` (stereo not given in full): the TGI in the assay with LOX IMVI melanoma, with RPMI-8226 leukemia, in the assay on OVCAR-4 ovarian, with HL-60(TB) leukemia, in the assay on EKVX NSCLC and with UACC-62 melanoma was > 100 µM in each case. The TGI with NCI-H23 lung, in the assay on CCRF-CEM leukemia, with PC-3 prostate and in the assay with HT29 colon was > 100 µM in each case.
On to `O=C1CSC(c2cc3cc(Br)ccc3nc2Cl)N1c1ccc(F)c(Cl)c1` (stereo not given), for which the TGI with LOX IMVI melanoma, in the assay with RPMI-8226 leukemia, with OVCAR-4 ovarian, in the assay with HL-60(TB) leukemia, in the assay with EKVX NSCLC and with UACC-62 melanoma was > 50 µM each time. Moreover, the TGI with NCI-H23 lung, with CCRF-CEM leukemia, in the assay on PC-3 prostate and in the assay with HT29 colon was > 50 µM throughout.
`C=C1CC2C[C@H](OS(=O)(=O)c3ccc(C)cc3)C(C1)N2C` (stereo not given in full): the TGI in the assay with LOX IMVI melanoma, in the assay with RPMI-8226 leukemia, in the assay on OVCAR-4 ovarian, in the assay with HL-60(TB) leukemia, in the assay with EKVX NSCLC and in the assay on UACC-62 melanoma was > 100 µM in each case. The TGI with NCI-H23 lung, in the assay with CCRF-CEM leukemia, with PC-3 prostate and with HT29 colon was > 100 µM in each case.
For the compound `Cc1nc(C)c(C(=O)NNC(=O)c2ccccc2)cc1C(=O)NNC(=O)c1ccccc1`, the TGI in the assay with LOX IMVI melanoma is > 100 µM; in the assay on RPMI-8226 leukemia, > 100 µM; in the assay with OVCAR-4 ovarian, > 100 µM; in the assay on HL-60(TB) leukemia, > 100 µM; in the assay with EKVX NSCLC, > 10 µM; in the assay with UACC-62 melanoma, > 100 µM. Besides, the TGI in the assay on NCI-H23 lung, in the assay on CCRF-CEM leukemia, in the assay with PC-3 prostate and in the assay with HT29 colon was > 100 µM in each case.
For `CCOC(=O)CCC1(C(=O)O[C@@H]2C[C@H](C)CC[C@H]2C(C)C)CCCCC1=O` (stereo not given in full), the TGI in the assay with LOX IMVI melanoma is > 100 µM; in the assay with RPMI-8226 leukemia it was > 100 µM; in the assay with OVCAR-4 ovarian, > 100 µM; in the assay on HL-60(TB) leukemia, 57.6 µM; in the assay on EKVX NSCLC, > 100 µM; with UACC-62 melanoma, > 100 µM. Besides, the TGI with NCI-H23 lung, in the assay with CCRF-CEM leukemia, in the assay on PC-3 prostate and in the assay on HT29 colon was > 100 µM in each case.
On to `CC(=O)c1c2c(cc3c1CCC3)CCC2`, for which the TGI with LOX IMVI melanoma, with RPMI-8226 leukemia, with OVCAR-4 ovarian, in the assay on HL-60(TB) leukemia, in the assay with EKVX NSCLC and in the assay with UACC-62 melanoma was > 100 µM each time. The TGI in the assay on NCI-H23 lung, with CCRF-CEM leukemia, in the assay on PC-3 prostate and in the assay on HT29 colon was > 100 µM each time.
Consider `[O-][n+]1cc(SCc2ccccc2)ncc1SCc1ccccc1`, for which the TGI in the assay with LOX IMVI melanoma, in the assay with RPMI-8226 leukemia, with OVCAR-4 ovarian, in the assay with HL-60(TB) leukemia, in the assay with EKVX NSCLC and with UACC-62 melanoma was > 10 µM throughout. In addition, the TGI with NCI-H23 lung, with CCRF-CEM leukemia, in the assay with PC-3 prostate and with HT29 colon was > 10 µM each time.
For the compound `CC(=O)O[C@H]1CC[C@]2(C=O)[C@H]3CC[C@]4(C)[C@@H](C5=CC(=O)OC5)CC[C@]4(O)[C@@H]3CC[C@]2(O)C1`, the TGI in the assay with LOX IMVI melanoma is 0.933 µM; in the assay with RPMI-8226 leukemia it was 3.21 µM; in the assay with OVCAR-4 ovarian it was 0.35 µM; in the assay with HL-60(TB) leukemia, 5.18 µM; in the assay on EKVX NSCLC it was 0.615 µM; in the assay with UACC-62 melanoma, 1.1 µM. For the same compound, the TGI in the assay on NCI-H23 lung is 0.373 µM; in the assay on CCRF-CEM leukemia, > 31.6 µM; in the assay with PC-3 prostate, 1.38 µM; with HT29 colon it was 1.05 µM.
In the case of `NC(=O)c1ccc(S(=O)(=NS(=O)(=O)c2ccccc2)c2ccc(C(N)=O)cc2)cc1`, the TGI in the assay on LOX IMVI melanoma, in the assay with RPMI-8226 leukemia, with OVCAR-4 ovarian, with HL-60(TB) leukemia, with EKVX NSCLC and in the assay with UACC-62 melanoma was > 100 µM in each case. In addition, the TGI in the assay with NCI-H23 lung, with CCRF-CEM leukemia, with PC-3 prostate and with HT29 colon was > 100 µM throughout.
Turning to `CC(NC1=NCCO1)c1ccco1` (stereo not given), the TGI with LOX IMVI melanoma, in the assay on RPMI-8226 leukemia, in the assay on OVCAR-4 ovarian, with HL-60(TB) leukemia, with EKVX NSCLC and in the assay with UACC-62 melanoma was > 100 µM throughout. In addition, the TGI with NCI-H23 lung, with CCRF-CEM leukemia, in the assay with PC-3 prostate and in the assay on HT29 colon was > 100 µM in each case.
Take `O=C1CCc2c(sc3ncnc(Nc4cccc(Br)c4)c23)C1`: the TGI with LOX IMVI melanoma was 12.9 µM; in the assay on RPMI-8226 leukemia, > 20.3 µM; with OVCAR-4 ovarian, 8.63 µM; in the assay on HL-60(TB) leukemia, 7.56 µM; in the assay with EKVX NSCLC, 12.4 µM; in the assay with UACC-62 melanoma, 11.1 µM. The TGI is 8.24 µM in the assay with NCI-H23 lung, 4.38 µM in the assay on CCRF-CEM leukemia, 10.3 µM with PC-3 prostate and 27 µM in the assay with HT29 colon.
